ChEMBL document CHEMBL1629460, “Image-based high-throughput drug screening targeting the intracellular stage of Trypanosoma cruzi, the agent of Chagas' disease” (Antimicrob Agents Chemother, 2010)

Tests used:
[1] = Cytotoxicity against BESM cells after 88 hrs by HTS assay; type: ADME, cell-based; conditions: Bos taurus
[2] = system: Trypanosoma cruzi; assay: Antitrypanosomal activity against Trypanosoma cruzi CA-I/72 infected in BESM cells measured after 88 hrs postinfection by HTS assay; type: functional, organism-based; conditions: CA-I/72, BESM
[3] = system: Trypanosoma cruzi; assay: Antitrypanosomal activity against Trypanosoma cruzi PSD-I infected in BESM cells measured after 88 hrs postinfection by HTS assay; type: functional, organism-based
[4] = system: Trypanosoma cruzi; assay: Antitrypanosomal activity against Trypanosoma cruzi Sylvio-X10/7 infected in BESM cells measured after 88 hrs postinfection by HTS assay; type: functional, organism-based; conditions: Sylvio-X10/7, BESM
[5] = Selectivity window, ratio of EC50 for BESM cells to EC50 for Trypanosoma cruzi amastigotes infected in BESM cells; set-up: reference not given here
[6] = system: Trypanosoma cruzi; assay: Antitrypanosomal activity against Trypanosoma cruzi amastigotes infected in BESM cells measured after 88 hrs postinfection by HTS assay; type: functional, organism-based

Row | EC50 [2] | EC50 [3] | EC50 [4] | EC50 [6] | SMILES | EC50 [1] | Ratio EC50 [5]
1 | 4200 nM | 3000 nM | 3000 nM |  | CN1CCN(C(=O)N[C@@H](Cc2ccccc2)C(=O)N[C@H](/C=C/S(=O)(=O)c2ccccc2)CCc2ccccc2)CC1 [K-777] | > 20000 nM | 
2 | 1200 nM | 2100 nM | 700 nM |  | CC1CS(=O)(=O)CCN1/N=C/c1ccc([N+](=O)[O-])o1 (stereo not given) [NIFURTIMOX] | > 10000 nM | 
3 |  |  |  | 10000 nM | CCC1=C[C@@H]2CN(C1)Cc1c([nH]c3ccccc13)[C@@](C(=O)OC)(c1cc3c(cc1OC)N(C)[C@H]1[C@@](O)(C(=O)OC)[C@H](OC(C)=O)[C@]4(CC)C=CCN5CC[C@]31[C@@H]54)C2 [VINORELBINE] | > 50000 nM | >5

Row | SMILES | EC50 [2] | EC50 [3] | EC50 [4] | EC50 [6] | EC50 [1] | Ratio EC50 [5]
4 | CC[C@@H]([C@H](C)O)n1ncn(-c2ccc(N3CCN(c4ccc(OC[C@@H]5CO[C@@](Cn6cncn6)(c6ccc(F)cc6F)C5)cc4)CC3)cc2)c1=O [POSACONAZOLE] | 200 nM | 130 nM | 80 nM |  | > 2000 nM | 
